Molecules are shown by their SMILES.

Here are results for 24 compounds from patent US7728028B2, “Substituted imidazoline compounds” (Gruenenthal GmbH, priority 2005, dated 2010).

This test addresses T1, human μ-opiate receptor (Homo sapiens, UniProt P35372).
T1 construct: purchased PerkinElmer Life Sciences, Zaventem, Belgium RB-HOM; host or cells: CHO-K1 cells (recombinant expression; membrane preparation)
Kind of test: Affinity for the human μ-opiate receptor ([3H]-naloxone displacement, SPA). As to conditions: Table 2, Examples 11-161; test substance 1 μmole/l; inhibition of specific [3H]-naloxone binding; CHO-K1 membranes; read-out: μ-Opioid receptor, % inhibition [1 μM]. Here is the method:
Investigations on the Efficacy of the Compounds According to the Invention Method for Determining the Affinity for the Human μ-Opiate Receptor
The receptor affinity for the human μ-opiate receptor is determined in a homogeneous batch in microtiter plates. For this purpose dilution series of the substances to be tested are incubated with a receptor membrane preparation (15-40 μg protein/250 μl incubation batch) of CHO-K1 cells, which express the human μ-opiate receptor (RB-HOM receptor membrane preparation from PerkinElmer Life Sciences, Zaventem, Belgium), in the presence of 1 nmole/l of the radioactive ligand [^3H]-naloxone (NET719, PerkinElmer Life Sciences company, Zaventem, Belgium) and 1 mg WGA-SPA beads (wheat germ agglutinin SPA beads from Amersham/Pharmacia, Freiburg, Germany) in a total volume of 250 μl for 90 minutes at room temperature. 50 mmole/l of Tris-HCl supplemented with 0.06% bovine serum albumin is used as incubation buffer. In order to determine the non-specific binding, 100 μmole/l of naloxone is additionally added. After the end of the 90 minutes' incubation time the microtiter plates are centrifuged for 20 minutes at 1000 g and the radioactivity is measured in a beta counter (Microbeta-Trilux, PerkinElmer Wallac, Freiburg, Germany). The percentage displacement of the radioactive ligand from its binding to the human μ-opiate receptor at a concentration of the test substances of 1 μmole/l is determined and is given as percentage inhibition of the specific binding.

T1 sequence (P35372 whole entry): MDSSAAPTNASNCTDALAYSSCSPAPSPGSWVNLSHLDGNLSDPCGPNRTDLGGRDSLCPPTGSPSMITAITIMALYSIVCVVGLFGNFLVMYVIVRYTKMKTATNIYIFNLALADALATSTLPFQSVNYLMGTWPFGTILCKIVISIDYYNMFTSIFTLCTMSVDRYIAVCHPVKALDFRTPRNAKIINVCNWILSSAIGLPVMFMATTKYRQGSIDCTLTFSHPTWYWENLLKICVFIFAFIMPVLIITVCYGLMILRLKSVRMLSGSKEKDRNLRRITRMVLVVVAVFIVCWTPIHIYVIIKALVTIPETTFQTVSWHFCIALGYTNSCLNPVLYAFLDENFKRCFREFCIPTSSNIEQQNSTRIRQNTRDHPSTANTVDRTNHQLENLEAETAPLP

A word on the inhibition: it is the change of the read-out against control, counted positive when it falls. Take `COC(=O)C1(CSCc2ccccc2)N=CN(CCc2ccccc2)C1C1CCC(C(c2cccc(F)c2)N(C)C)CC1` (stereo not drawn) [Example 92, 4-benzylsulfanylmethyl-5-{4-[dimethylamino-(3-fluorophenyl)-methyl]-cyclohexyl}-1-phenethyl-4,5-dihydro-1H-imidazole-4-carboxylic acid methyl ester]: the inhibition at 1 µM came out at 95%.

Turning to `CCCCN1C=NC(CCC)(C(=O)OC)C1CC1CCC(C(c2ccc(F)cc2)N(C)C)CC1` (stereo not drawn) [Example 125, 1-butyl-5-{4-[dimethylamino-(4-fluorophenyl)-methyl]-cyclohexylmethyl}-4-propyl-4,5-dihydro-1H-imidazole-4-carboxylic acid methyl ester], the inhibition at 1 µM was determined as 91%.

Consider `CCCC1(C(=O)OC)N=CN(C2CCCCC2)C1CC1CCC(C(c2cccc(F)c2)N(C)C)CC1` (stereo not drawn) [Example 102, 1-cyclohexyl-5-{4-[dimethylamino-(3-fluorophenyl)-methyl]-cyclohexylmethyl}-4-propyl-4,5-dihydro-1H-imidazole-4-carboxylic acid methyl ester], for which the inhibition at 1 µM amounted to 91%.

Consider `CCCN1C=NC(CCC)(C(=O)OC)C1CC1CCC(C(c2ccc(F)cc2)N(C)C)CC1` (stereo not drawn) [Example 118, 5-{4-[dimethylamino-(4-fluorophenyl)-methyl]-cyclohexylmethyl}-1,4-dipropyl-4,5-dihydro-1H-imidazole-4-carboxylic acid methyl ester], for which the inhibition at 1 µM came out at 87%.

Consider `CCCN1C=NC(CSC)(C(=O)OC)C1CC1CCC(C(c2cccc(F)c2)N(C)C)CC1` (stereo not drawn) [Example 158, 5-{4-[dimethylamino-(3-fluorophenyl)-methyl]-cyclohexylmethyl}-4-methylsulfanylmethyl-1-propyl-4,5-dihydro-1H-imidazole-4-carboxylic acid methyl ester], for which the inhibition at 1 µM stood at 95%.

Turning to `CCCCN1C=NC(CCC(=O)OC)(C(=O)OC)C1CC1CCC(C(c2ccc(Cl)cc2)N(C)C)CC1` (stereo not drawn) [Example 70, 1-butyl-5-{4-[(4-chlorophenyl)-dimethylaminomethyl]-cyclohexylmethyl}-4-(2-methoxycarbonylethyl)-4,5-dihydro-1H-imidazole-4-carboxylic acid methyl ester], the inhibition at 1 µM came to 96%.

As to `COC(=O)C1(CC(C)C)N=CN(Cc2ccccc2)C1C1CCC(C(c2cccc(F)c2)N(C)C)CC1` (stereo not drawn) [Example 46, 1-benzyl-5-{4-[dimethylamino-(3-fluorophenyl)-methyl]-cyclohexyl}-4-isobutyl-4,5-dihydro-1H-imidazole-4-carboxylic acid methyl ester], the inhibition at 1 µM was determined as 92%.

In the case of `CCCCN1C=NC(CCSC)(C(=O)OC)C1CC1CCC(C(CCc2ccccc2)N(C)C)CC1` (stereo not drawn) [Example 128, 1-butyl-5-[4-(1-dimethylamino-3-phenylpropyl)-cyclohexylmethyl]-4-(2-methylsulfanylethyl)-4,5-dihydro-1H-imidazole-4-carboxylic acid methyl ester], the inhibition at 1 µM came out at 83%.

For the compound `CCCCN1C=NC(Cc2ccc(Cl)cc2)(C(=O)OC)C1C1CCC(C(c2ccc(Cl)cc2)N(C)C)CC1` (stereo not drawn) [Example 32, 1-butyl-4-(4-chlorobenzyl)-5-{4-[(4-chlorophenyl)-dimethylaminomethyl]-cyclohexyl}-4,5-dihydro-1H-imidazole-4-carboxylic acid methyl ester], the inhibition at 1 µM turned out to be 74%.

For `CCCC1(C(=O)OC)N=CN(Cc2ccccc2)C1CC1CCC(C(c2cccc(F)c2)N(C)C)CC1` (stereo not drawn) [Example 138, 1-benzyl-5-{4-[dimethylamino-(3-fluorophenyl)-methyl]-cyclohexylmethyl}-4-propyl-4,5-dihydro-1H-imidazole-4-carboxylic acid methyl ester], the inhibition at 1 µM amounted to 101%.

On to `CCCCN1C=NC(C)(C(=O)OC)C1CC1CCC(C(c2cccc(F)c2)N(C)C)CC1` (stereo not drawn) [Example 124, 1-butyl-5-{4-[dimethylamino-(3-fluorophenyl)-methyl]-cyclohexylmethyl}-4-methyl-4,5-dihydro-1H-imidazole-4-carboxylic acid methyl ester], for which the inhibition at 1 µM worked out at 95%.

As for `COC(=O)C1(CCSC)N=CN(CCc2ccccc2)C1CC1CCC(C(c2cccc(F)c2)N(C)C)CC1` (stereo not drawn) [Example 130, 5-{4-[dimethylamino-(3-fluorophenyl)-methyl]-cyclohexylmethyl}-4-(2-methylsulfanylethyl)-1-phenethyl-4,5-dihydro-1H-imidazole-4-carboxylic acid methyl ester], the inhibition at 1 µM stood at 97%.

For `COC(=O)C1(C)N=CN(CCc2ccccc2)C1CC1CCC(C(CCc2ccccc2)N(C)C)CC1` (stereo not drawn) [Example 137, 5-[4-(1-dimethylamino-3-phenylpropyl)-cyclohexylmethyl]-4-methyl-1-phenethyl-4,5-dihydro-1H-imidazole-4-carboxylic acid methyl ester], the inhibition at 1 µM is 61%.

As for `COC(=O)C1(C)N=CN(CCc2ccccc2)C1CC1CCC(C(c2ccc(F)cc2)N(C)C)CC1` (stereo not drawn) [Example 134, 5-{4-[dimethylamino-(4-fluorophenyl)-methyl]-cyclohexylmethyl}-4-methyl-1-phenethyl-4,5-dihydro-1H-imidazole-4-carboxylic acid methyl ester], the inhibition at 1 µM amounted to 92%.

As to `COC(=O)C1(CCSC)N=CN(Cc2ccccc2)C1CC1CCC(C(c2ccc(F)cc2)N(C)C)CC1` (stereo not drawn) [Example 142, 1-benzyl-5-{4-[dimethylamino-(4-fluorophenyl)-methyl]-cyclohexylmethyl}-4-(2-methylsulfanyl-ethyl)-4,5-dihydro-1H-imidazole-4-carboxylic acid methyl ester], the inhibition at 1 µM came out at 97%.

Take `CCCN1C=NC(CSCc2ccccc2)(C(=O)OC)C1C1CCC(C(c2cccc(F)c2)N(C)C)CC1` (stereo not drawn) [Example 58, 4-benzylsulfanylmethyl-5-{4-[dimethylamino-(3-fluorophenyl)-methyl]-cyclohexyl}-1-propyl-4,5-dihydro-1H-imidazole-4-carboxylic acid methyl ester]: the inhibition at 1 µM amounted to 81%.

On to `COC(=O)CCC1(C(=O)OC)N=CN(Cc2ccccc2)C1C1CCC(C(c2cccc(F)c2)N(C)C)CC1` (stereo not drawn) [Example 95, 1-benzyl-5-{4-[dimethylamino-(3-fluorophenyl)-methyl]-cyclohexyl}-4-(2-methoxycarbonylethyl)-4,5-dihydro-1H-imidazole-4-carboxylic acid methyl ester], for which the inhibition at 1 µM amounted to 94%.

With `CCCCN1C=NC(CCCC)(C(=O)OC)C1CC1CCC(C(c2ccc(Cl)cc2)N(C)C)CC1` (stereo not drawn) [Example 36, 1,4-dibutyl-5-{4-[(4-chlorophenyl)-dimethylaminomethyl]-cyclohexylmethyl}-4,5-dihydro-1H-imidazole-4-carboxylic acid methyl ester], the inhibition at 1 µM was 97%.

In the case of `COC(=O)C1(C)N=CN(Cc2ccccc2)C1CC1CCC(C(c2ccc(F)cc2)N(C)C)CC1` (stereo not drawn) [Example 143, 1-benzyl-5-{4-[dimethylamino-(4-fluorophenyl)-methyl]-cyclohexylmethyl}-4-methyl-4,5-dihydro-1H-imidazole-4-carboxylic acid methyl ester], the inhibition at 1 µM amounted to 100%.

For the compound `COC(=O)C1(CSC)N=CN(C2CCCCC2)C1CC1CCC(C(c2cccc(F)c2)N(C)C)CC1` (stereo not drawn) [Example 149, 1-cyclohexyl-5-{4-[dimethylamino-(3-fluorophenyl)-methyl]-cyclohexylmethyl}-4-methylsulfanylmethyl-4,5-dihydro-1H-imidazole-4-carboxylic acid methyl ester], the inhibition at 1 µM came out at 99%.

In the case of `CCCC1(C(=O)OC)N=CN(C2CCCCC2)C1CC1CCC(C(c2ccc(F)cc2)N(C)C)CC1` (stereo not drawn) [Example 105, 1-cyclohexyl-5-{4-[dimethylamino-(4-fluorophenyl)-methyl]-cyclohexylmethyl}-4-propyl-4,5-dihydro-1H-imidazole-4-carboxylic acid methyl ester], the inhibition at 1 µM came out at 95%.

Turning to `COC(=O)C1(C)N=CN(Cc2ccccc2)C1CC1CCC(C(CCc2ccccc2)N(C)C)CC1` (stereo not drawn) [Example 146, 1-benzyl-5-[4-(1-dimethylamino-3-phenylpropyl)-cyclohexylmethyl]-4-methyl-4,5-dihydro-1H-imidazole-4-carboxylic acid methyl ester], the inhibition at 1 µM came out at 79%.

`CCCC1(C(=O)OC)N=CN(CCc2ccccc2)C1CC1CCC(C(c2ccc(F)cc2)N(C)C)CC1` (stereo not drawn) [Example 132, 5-{4-[dimethylamino-(4-fluorophenyl)-methyl]-cyclohexylmethyl}-1-phenethyl-4-propyl-4,5-dihydro-1H-imidazole-4-carboxylic acid methyl ester]: the inhibition at 1 µM is 98%.

As to `CCCN1C=NC(Cc2ccc(Cl)cc2)(C(=O)OC)C1CC1CCC(C(c2ccc(Cl)cc2)N(C)C)CC1` (stereo not drawn) [Example 27, 4-(4-chlorobenzyl)-5-{4-[(4-chlorophenyl)-dimethylaminomethyl]-cyclohexylmethyl}-1-propyl-4,5-dihydro-1H-imidazole-4-carboxylic acid methyl ester], the inhibition at 1 µM was 96%.
